Reference: ChEMBL document CHEMBL5727076, “GDF-8 inhibitors” (2018)
pIC50: −log10 of the molar value.

Assays:
[1] = target: TGF-beta receptor type-1 (Homo sapiens, UniProt P36897, T204D); assay: The reaction is incubated for 1 hour at room temperature and the HTRF signal was measured on an Envision plate reader (Ex: 340 nm; Em: 520 nm/495 nm). Inhibition data were calculated by comparison to no enzyme control reactions for 100% inhibition and vehicle-only reactions for 0% inhibition. The final concentration of reagents in the assay are 1 nM HIS-TGFβR1 T204D or HIS-TGFβR2 WT, 0.2 nM anti-HIS detection antibody, labeled small molecule probe (at Kd) and 0.5% DMSO. Dose response curves were generated to determine the concentration required inhibiting 50% of kinase activity (IC50). Compounds were dissolved at 10 mM in dimethylsulfoxide (DMSO) and evaluated at eleven concentrations.
[2] = target: TGF-beta receptor type-2 (Homo sapiens, UniProt P37173); assay: Compounds were dissolved at 10 mM in dimethylsulfoxide (DMSO) and evaluated at eleven concentrations.
Sequence of TGF-beta receptor type-2 (P37173 whole entry): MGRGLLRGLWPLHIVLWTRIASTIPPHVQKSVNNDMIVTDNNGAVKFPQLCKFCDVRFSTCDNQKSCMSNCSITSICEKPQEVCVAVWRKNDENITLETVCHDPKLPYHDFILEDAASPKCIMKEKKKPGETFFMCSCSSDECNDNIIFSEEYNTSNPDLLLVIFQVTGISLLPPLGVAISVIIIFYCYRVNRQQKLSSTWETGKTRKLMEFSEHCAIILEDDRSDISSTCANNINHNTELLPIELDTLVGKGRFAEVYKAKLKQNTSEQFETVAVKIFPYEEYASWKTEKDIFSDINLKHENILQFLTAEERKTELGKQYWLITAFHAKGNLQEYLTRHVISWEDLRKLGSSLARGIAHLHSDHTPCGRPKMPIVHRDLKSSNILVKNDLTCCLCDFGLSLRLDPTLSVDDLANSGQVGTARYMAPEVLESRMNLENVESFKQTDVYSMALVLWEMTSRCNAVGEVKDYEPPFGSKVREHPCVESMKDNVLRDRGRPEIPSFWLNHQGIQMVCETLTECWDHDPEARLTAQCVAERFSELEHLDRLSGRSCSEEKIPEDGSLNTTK

Sequence of TGF-beta receptor type-1 (P36897 34-503 T204D limits assumed): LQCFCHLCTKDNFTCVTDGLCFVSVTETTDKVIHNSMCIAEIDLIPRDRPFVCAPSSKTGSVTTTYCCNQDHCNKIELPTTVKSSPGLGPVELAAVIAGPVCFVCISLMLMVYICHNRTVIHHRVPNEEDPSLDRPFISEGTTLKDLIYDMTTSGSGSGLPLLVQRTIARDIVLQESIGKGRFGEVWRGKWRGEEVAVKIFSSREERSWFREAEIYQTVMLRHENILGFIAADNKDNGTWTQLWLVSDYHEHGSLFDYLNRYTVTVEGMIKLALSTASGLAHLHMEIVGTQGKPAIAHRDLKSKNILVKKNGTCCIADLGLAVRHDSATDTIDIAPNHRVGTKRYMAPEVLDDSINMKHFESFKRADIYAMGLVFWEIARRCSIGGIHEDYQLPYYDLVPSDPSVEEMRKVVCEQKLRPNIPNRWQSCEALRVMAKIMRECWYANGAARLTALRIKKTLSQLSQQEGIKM

Q: How did the pIC50 [1] turn out when `Cc1cccc(-c2ncccc2-c2ccc3ncc(C(=O)O)n3c2)n1` was run?
A: 8.40

Q: With `CNC(=O)c1cnc2ccc(-c3cccnc3-c3cccc(C)n3)cn12` as the molecule, how does the pIC50 [1] read?
A: 8.70

Q: And the pIC50 [2]?
A: < 4.82

Q: `N#Cc1cnc2ccc(-c3cccnc3-c3cccc(C(F)(F)F)n3)cn12` was tested. Which pIC50 [1] did it give?
A: 7.96

Q: What about the pIC50 [2] of the same molecule?
A: < 4.82

Q: `Cc1cccc(-c2ncccc2-c2ccn3ncc(C(N)=O)c3n2)n1` was tested. Which pIC50 [1] did it give?
A: 8.22

Q: What about the pIC50 [2] of the same molecule?
A: < 4.82
